Tests used:
EphA1 = biological target: T1, EphA1 (Homo sapiens, UniProt P21709); experiment: In vitro kinase activity (Millipore KinaseProfiler): EphA1; format: biochemical; settings: no head or unit printed
T1 construct: purchased Millipore (KinaseProfiler service)
Method: (§1) All cells were grown in DMEM+10% FCS. ACHN and ACHN shVHL were a kind gift from George V. Thomas (UCLA). HIF overexpressing clones were described previously. Transfection of RNA oligos were performed with DnarmaFECT Reagent 1 (Dharmcon), according to manufacturer's directions. ON-TARGETplus SMART pools against HIF-1β/ARNT were purchased from Dharmacon. Glut1 was detected with anti-GLUT1 antibody from NeoMarkers/LabVision/Fisher. Pyruvate/lactate levels and hexokinase activity were both measured by fluorometric assay (BioVision and Sigma-Aldrich, respectively). ATP levels were measured by bioluminescence assay (ATP Determination Kit from Molecular Probes/Invitrogen). In vitro kinase activities were performed by Millipore KinaseProfiler. Affi-Gel 10 (BioRad) activated affinity media was coupled to analogs to generate immobilized affinity linkers.
(§2) We next wanted to investigate the differential glucose uptake between RCCs with and without VHL treated with compound 47 that subsequently lead to the selective death of VHL-deficient cells. We first examined the message levels of the two main glucose transporters, GLUT1 and GLUT2 by quantitative real-time PCR. GLUT1 is an inducible, high-affinity glucose transporter, while GLUT2 is the glucose transporter responsible for basal glucose uptake. […] Cells deficient in VHL had very low levels of GLUT2 that could barely be detected (FIG. 3J). […]

ROCK-I = biological target: T2, ROCK-I (Homo sapiens, UniProt Q13464); experiment: In vitro kinase activity (Millipore KinaseProfiler): ROCK-I; format: biochemical; settings: no head or unit printed
T2 construct: purchased Millipore (KinaseProfiler service)
Method: as §1, §2

CDK1/cyclinB = biological target: T3, CDK1/cyclinB (Homo sapiens, UniProt P06493); experiment: In vitro kinase activity (Millipore KinaseProfiler): CDK1/cyclinB; format: biochemical; settings: no head or unit printed
T3 construct: purchased Millipore (KinaseProfiler service)
Method: as §1, §2

Syk = biological target: T4, Syk (Homo sapiens, UniProt P43405); experiment: In vitro kinase activity (Millipore KinaseProfiler): Syk; format: biochemical; settings: no head or unit printed
T4 construct: purchased Millipore (KinaseProfiler service)
Method: as §1, §2

RCC4 = experiment: Necrotic cell death by trypan blue, RCC4; format: cell-based, human; settings: 3 days, 5 μM, FIG. 2F
Method: For 2,3-bis[2-methoxy-4-nitro-5-sulfophenyl]-2H-tetrazolium-5-carboxanilide (XTT) assays, five thousand cells were plated in 96-well plates. The next day, vehicle (DMSO) or drug was added by serial dilution. Four days later, media were aspirated, XTT solution (0.3 mg/ml of XTT (Sigma), 2.65 mg/ml N-methyl dibenxopyrazine methyl sulfate (Simga) in phenol red-free media) was added, and the plates were incubated at 37° C. for 1-2 hours. Metabolism of XTT was quantified by measuring the absorbance at 450 nm. IC50s were calculated using linear interpolation. For clonogenic survival assays, three hundred cells were plated per 60 mm tissue culture dish. The cells were allowed to attach overnight and then treated with vehicle or drug for 14 days. Colonies were fixed and stained with crystal violet (0.1% crystal violet in 95% ethanol). All conditions were measured in triplicate and each experiment was done in duplicate or triplicate. To determine necrosis, cells were treated with drug for a given time point. Media and cells were collected, centrifugated, and resuspended in 0.4% trypan blue (Invitrogen). Live and dead cells were counted on a hematocytometer.

CK1γ1 = biological target: T5, CK1γ1 (Homo sapiens, UniProt Q9HCP0); experiment: In vitro kinase activity (Millipore KinaseProfiler): CK1γ1; format: biochemical; settings: no head or unit printed
T5 construct: purchased Millipore (KinaseProfiler service)
Method: as §1, §2

MEK1 = biological target: T6, MEK1 (Homo sapiens, UniProt Q02750); experiment: In vitro kinase activity (Millipore KinaseProfiler): MEK1; format: biochemical; settings: no head or unit printed
T6 construct: purchased Millipore (KinaseProfiler service)
T6 sequence (Q02750 whole entry, species assumed): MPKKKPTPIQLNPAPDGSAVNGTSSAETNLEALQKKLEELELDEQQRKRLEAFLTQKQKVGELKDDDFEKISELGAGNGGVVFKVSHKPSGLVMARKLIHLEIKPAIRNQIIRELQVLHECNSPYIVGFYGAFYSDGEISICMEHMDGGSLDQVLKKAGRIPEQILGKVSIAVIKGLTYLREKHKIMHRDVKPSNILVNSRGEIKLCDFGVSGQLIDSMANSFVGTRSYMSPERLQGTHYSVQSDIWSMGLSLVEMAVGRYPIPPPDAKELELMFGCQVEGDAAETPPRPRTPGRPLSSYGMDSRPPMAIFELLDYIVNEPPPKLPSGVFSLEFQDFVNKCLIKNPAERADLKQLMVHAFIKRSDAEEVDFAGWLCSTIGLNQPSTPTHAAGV
Method: as §1, §2

RCC4 and RCC4/VHL cells = experiment: Oxygen consumption (Oxytherm electrode); format: cell-based, human; settings: 5 μM, FIG. 3F
Method: Following treatment with vehicle or drug, cells were trypsinized, suspended at 5 million cells per ml in DMEM+10% FCS, and oxygen consumption was measured in 0.5 ml volume using an Oxytherm electrode unit (Hansatech).

CSK = biological target: T7, CSK (Homo sapiens, UniProt P41240); experiment: In vitro kinase activity (Millipore KinaseProfiler): CSK; format: biochemical; settings: no head or unit printed
T7 construct: purchased Millipore (KinaseProfiler service)
T7 sequence (P41240 whole entry, species assumed): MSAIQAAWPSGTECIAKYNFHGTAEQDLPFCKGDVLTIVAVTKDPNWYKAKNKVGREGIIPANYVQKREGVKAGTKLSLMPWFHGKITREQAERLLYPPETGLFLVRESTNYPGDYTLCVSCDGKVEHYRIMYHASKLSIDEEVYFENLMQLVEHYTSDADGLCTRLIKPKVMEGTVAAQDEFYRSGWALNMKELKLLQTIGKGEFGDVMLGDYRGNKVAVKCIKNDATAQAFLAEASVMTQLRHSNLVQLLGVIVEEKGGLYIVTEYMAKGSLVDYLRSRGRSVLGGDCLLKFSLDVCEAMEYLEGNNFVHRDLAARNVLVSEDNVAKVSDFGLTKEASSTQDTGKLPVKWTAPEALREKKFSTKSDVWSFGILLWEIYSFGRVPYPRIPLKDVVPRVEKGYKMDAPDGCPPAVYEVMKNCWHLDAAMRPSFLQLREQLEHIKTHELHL
Method: as §1, §2

DAPK1 = biological target: T8, DAPK1 (Homo sapiens, UniProt P53355); experiment: In vitro kinase activity (Millipore KinaseProfiler): DAPK1; format: biochemical; settings: no head or unit printed
T8 construct: purchased Millipore (KinaseProfiler service)
T8 sequence (P53355 whole entry, species assumed): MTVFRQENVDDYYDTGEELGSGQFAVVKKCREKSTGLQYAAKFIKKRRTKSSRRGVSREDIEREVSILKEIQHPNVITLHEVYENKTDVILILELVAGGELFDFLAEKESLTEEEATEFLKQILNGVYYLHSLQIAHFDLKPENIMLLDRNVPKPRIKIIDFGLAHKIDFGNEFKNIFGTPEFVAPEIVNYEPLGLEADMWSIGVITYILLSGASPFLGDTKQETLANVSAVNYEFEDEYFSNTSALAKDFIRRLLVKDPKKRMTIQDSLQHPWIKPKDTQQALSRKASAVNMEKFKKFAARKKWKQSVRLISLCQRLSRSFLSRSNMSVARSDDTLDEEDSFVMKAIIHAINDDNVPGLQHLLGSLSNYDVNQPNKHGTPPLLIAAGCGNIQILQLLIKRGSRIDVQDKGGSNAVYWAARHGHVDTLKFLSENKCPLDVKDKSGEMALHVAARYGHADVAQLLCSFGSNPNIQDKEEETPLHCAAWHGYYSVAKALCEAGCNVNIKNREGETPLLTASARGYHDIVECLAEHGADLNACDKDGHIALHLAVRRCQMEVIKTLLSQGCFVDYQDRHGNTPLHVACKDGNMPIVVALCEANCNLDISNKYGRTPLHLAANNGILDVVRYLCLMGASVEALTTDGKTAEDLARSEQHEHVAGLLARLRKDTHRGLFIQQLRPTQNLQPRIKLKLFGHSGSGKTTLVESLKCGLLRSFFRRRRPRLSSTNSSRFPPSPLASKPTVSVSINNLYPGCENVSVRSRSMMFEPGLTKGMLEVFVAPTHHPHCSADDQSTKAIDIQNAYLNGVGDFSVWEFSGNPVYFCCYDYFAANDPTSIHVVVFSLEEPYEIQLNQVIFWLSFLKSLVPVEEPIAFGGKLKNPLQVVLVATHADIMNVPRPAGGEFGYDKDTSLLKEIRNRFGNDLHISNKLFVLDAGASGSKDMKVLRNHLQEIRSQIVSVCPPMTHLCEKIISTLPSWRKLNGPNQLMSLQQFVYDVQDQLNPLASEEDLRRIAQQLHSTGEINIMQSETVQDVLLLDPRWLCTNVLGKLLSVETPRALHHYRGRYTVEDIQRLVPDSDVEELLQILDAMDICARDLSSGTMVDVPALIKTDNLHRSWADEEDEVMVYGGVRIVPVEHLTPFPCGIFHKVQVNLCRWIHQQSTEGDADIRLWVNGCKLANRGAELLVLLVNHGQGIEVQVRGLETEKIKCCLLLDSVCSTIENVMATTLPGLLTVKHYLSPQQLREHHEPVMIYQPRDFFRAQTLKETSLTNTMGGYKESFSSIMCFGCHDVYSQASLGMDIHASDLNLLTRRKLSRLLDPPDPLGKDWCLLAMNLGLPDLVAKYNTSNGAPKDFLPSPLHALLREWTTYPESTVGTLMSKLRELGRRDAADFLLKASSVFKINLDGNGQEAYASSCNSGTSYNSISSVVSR
Method: as §1, §2

RCC4/VHL = experiment: XTT IC50 assay, selectivity RCC4 versus RCC4 with VHL-reintroduced; format: cell-based, human; settings: selectivity ratio of XTT IC50 values, RCC4 vs RCC4/VHL
Procedure, shortened: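 RCC4 parental and VHL-reintroduced RCC4/VHL cells (DMEM, 10% FCS) treated with serially diluted drug for four days. Viability by XTT (0.3 mg/mL) with N-methyl dibenzopyrazine methyl sulfate, 1–2 h at 37 °C, absorbance 450 nm; IC50 by linear interpolation.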

PKCδ = biological target: T9, PKCδ (Homo sapiens, UniProt Q05655); experiment: In vitro kinase activity (Millipore KinaseProfiler): PKCδ; format: biochemical; settings: no head or unit printed
T9 construct: purchased Millipore (KinaseProfiler service)
T9 sequence (Q05655 whole entry): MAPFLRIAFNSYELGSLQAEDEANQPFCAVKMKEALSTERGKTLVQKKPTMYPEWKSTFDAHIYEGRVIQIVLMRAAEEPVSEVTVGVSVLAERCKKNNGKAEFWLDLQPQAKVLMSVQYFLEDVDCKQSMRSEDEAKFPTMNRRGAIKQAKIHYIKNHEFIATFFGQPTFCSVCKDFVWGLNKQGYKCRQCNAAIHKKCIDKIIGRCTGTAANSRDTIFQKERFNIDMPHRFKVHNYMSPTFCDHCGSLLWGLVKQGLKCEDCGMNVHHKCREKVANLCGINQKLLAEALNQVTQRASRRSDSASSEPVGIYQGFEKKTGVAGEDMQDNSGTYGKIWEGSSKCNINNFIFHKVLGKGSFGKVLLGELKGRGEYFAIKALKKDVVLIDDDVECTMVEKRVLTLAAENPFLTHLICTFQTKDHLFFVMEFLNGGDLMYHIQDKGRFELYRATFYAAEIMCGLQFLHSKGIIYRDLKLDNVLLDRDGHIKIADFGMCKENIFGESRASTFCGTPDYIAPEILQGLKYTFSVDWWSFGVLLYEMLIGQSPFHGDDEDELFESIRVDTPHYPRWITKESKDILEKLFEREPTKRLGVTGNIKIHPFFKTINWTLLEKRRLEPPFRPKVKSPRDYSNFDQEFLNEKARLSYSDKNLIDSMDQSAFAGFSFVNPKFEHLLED
Method: as §1, §2

Pim-2 = biological target: T10, Pim-2 (Homo sapiens, UniProt Q9P1W9); experiment: In vitro kinase activity (Millipore KinaseProfiler): Pim-2; format: biochemical; settings: no head or unit printed
T10 construct: purchased Millipore (KinaseProfiler service)
T10 sequence (Q9P1W9 whole entry, species assumed): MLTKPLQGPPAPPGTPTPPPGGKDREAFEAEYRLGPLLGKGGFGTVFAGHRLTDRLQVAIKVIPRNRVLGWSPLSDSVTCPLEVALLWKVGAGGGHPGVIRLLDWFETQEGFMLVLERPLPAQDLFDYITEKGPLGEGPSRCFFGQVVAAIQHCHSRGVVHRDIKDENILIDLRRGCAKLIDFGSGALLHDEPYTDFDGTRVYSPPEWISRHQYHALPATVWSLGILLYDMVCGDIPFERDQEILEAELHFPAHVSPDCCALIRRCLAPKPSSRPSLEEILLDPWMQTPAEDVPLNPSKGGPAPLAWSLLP
Method: as §1, §2

IRAK1 = biological target: T11, IRAK1 (Homo sapiens, UniProt P51617); experiment: In vitro kinase activity (Millipore KinaseProfiler): IRAK1; format: biochemical; settings: no head or unit printed
T11 construct: purchased Millipore (KinaseProfiler service)
T11 sequence (P51617 whole entry, species assumed): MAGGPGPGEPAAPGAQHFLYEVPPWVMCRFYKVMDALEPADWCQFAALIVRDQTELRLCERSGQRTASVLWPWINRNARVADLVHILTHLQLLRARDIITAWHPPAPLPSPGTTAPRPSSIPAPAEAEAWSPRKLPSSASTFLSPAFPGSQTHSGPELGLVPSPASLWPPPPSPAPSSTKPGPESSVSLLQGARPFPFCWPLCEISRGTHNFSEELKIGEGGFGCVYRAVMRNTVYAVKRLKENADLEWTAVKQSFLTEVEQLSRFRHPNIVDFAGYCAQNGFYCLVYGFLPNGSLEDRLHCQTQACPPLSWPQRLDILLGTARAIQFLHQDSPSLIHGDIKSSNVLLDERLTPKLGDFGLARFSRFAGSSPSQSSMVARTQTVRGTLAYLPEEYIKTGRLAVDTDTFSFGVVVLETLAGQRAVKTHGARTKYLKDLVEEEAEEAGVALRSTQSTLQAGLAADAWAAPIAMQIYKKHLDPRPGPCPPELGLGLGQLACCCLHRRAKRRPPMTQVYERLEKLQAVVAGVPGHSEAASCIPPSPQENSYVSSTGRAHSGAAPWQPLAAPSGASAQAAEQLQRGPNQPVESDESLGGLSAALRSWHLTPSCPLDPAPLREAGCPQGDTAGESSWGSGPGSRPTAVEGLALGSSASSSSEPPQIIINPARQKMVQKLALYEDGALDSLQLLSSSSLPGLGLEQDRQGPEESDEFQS
Method: as §1, §2

T1 sequence (P21709 26-976, species assumed): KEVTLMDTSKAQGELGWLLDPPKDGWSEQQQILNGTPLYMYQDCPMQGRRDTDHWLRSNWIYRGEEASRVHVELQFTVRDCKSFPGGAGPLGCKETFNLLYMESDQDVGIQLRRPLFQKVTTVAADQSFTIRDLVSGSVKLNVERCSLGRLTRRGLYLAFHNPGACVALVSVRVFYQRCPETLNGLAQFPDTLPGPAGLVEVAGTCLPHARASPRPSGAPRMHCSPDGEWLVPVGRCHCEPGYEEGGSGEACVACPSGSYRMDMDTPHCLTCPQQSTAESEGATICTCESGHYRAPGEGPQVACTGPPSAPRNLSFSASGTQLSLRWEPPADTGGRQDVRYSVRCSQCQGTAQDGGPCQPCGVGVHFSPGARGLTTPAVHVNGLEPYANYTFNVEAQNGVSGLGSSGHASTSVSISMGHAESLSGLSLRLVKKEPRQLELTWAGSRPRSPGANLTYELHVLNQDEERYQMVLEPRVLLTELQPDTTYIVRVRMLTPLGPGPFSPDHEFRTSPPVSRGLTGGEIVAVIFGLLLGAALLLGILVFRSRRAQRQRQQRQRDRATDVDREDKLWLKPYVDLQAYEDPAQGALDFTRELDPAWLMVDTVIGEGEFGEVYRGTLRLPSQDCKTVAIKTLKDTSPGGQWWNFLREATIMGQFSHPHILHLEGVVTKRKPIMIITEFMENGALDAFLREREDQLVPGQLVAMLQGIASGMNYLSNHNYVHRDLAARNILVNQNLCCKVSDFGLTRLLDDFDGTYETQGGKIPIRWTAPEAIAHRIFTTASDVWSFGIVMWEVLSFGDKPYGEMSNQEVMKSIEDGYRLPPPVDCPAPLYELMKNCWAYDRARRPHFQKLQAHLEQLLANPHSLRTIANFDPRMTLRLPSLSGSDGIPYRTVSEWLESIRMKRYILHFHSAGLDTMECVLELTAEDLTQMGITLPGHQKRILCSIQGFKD

Q: Which results are given for CC(C)(C)c1ccc(S(=O)(=O)NCc2ccc(C(=O)Nc3cccnc3)cc2)cc1 [Example 38, 4-((4-tert-Butylphenylsulfonamido)methyl)-N-(pyridin-3-yl)benzamide]?
A: EphA1 kinase activity (EphA1): 102; ROCK-I kinase activity (ROCK-I): 74%; CDK1/cyclinB kinase activity (CDK1/cyclinB): 96; Syk kinase activity (Syk): 94; RCC4 cells exhibiting necrotic cell death (RCC4): greater than 80%; CK1γ1 kinase activity (CK1γ1): 85%; MEK1 kinase activity (MEK1): 99; oxygen consumption, treated vs untreated cells (RCC4 and RCC4/VHL cells): no difference in oxygen consumption; CSK kinase activity (CSK): 99; DAPK1 kinase activity (DAPK1): 92%; Ratio (RCC4:RCC/VHL) (RCC4/VHL): c (“c” reflects a ratio of >100); PKCδ kinase activity (PKCδ): 116; Pim-2 kinase activity (Pim-2): 112; IRAK1 kinase activity (IRAK1): 105%

From patent US20120225862A1, “HETEROARYL BENZAMIDES, COMPOSITIONS AND METHODS OF USE” (AUCKLAND UNIVSERVICES LIMITED, priority 2009, published 2012)
